Results reported in patent US20250136934A1, “PRODUCTION OF INDUCED MIDBRAIN DOPAMINERGIC PROGENITOR CELLS FROM PLURIPOTENT STEM CELLS” (NUWACELL BIOTECHNOLOGIES CO., LTD., priority 2023, published 2025).

Tested on: OTX2+ imDAP cells
Assay: FACS analysis of OTX2 expression of imDAP cells derived from hiPSCs
Assay type: cell-based, human
Details: 4-step protocol, Day 16
Procedure: • 1. Individualize and collect cells by either Accutase or TrypLE treatment. • 2. Wash cells with 1 ml PBS and pellet cells at 250×g for […]. • 3. Remove supernatant, add ˜200 μl of 4% PFA, mix and fix for 10 min at RT. • 4. Pellet cells at 350×g for 5 min. • 5. Wash cells by 1 ml of FACS buffer and pellet cells at 350×g for 5 min. • 6. Remove supernatant, add 200 μl/tube of FACS buffer/0.1% Triton X, mix for 10 min at RT. • 7. Wash cells by 1 ml of FACS buffer and pellet cells at 350×g for 5 min. • 8. Remove supernatant, add 200 μl/tube of primary antibody diluted in FACS buffer, mix gently, and incubate for 30 min at RT. • 9. Wash cells by 1 ml of FACS buffer and pellet cells at 350×g for 5 min. • 10. Remove supernatant, and add 200 μl of secondary antibody diluted in FACS buffer, mix gently, and incubate for 30 min at RT. • 11. Wash cells by 1 ml of FACS buffer and pellet cells at 300×g for 5 min. • 12. Remove supernatant, add 200 μl of FACS buffer, and run samples on the flow cytometer.
On Day-1, EB formation (Stage 1) was carried out by dissociating hiPSCs (Nuwacell) to form a single-cell suspension and resuspending it in Epic medium (Nuwacell, #RP01001) containing 10 μM Blebbistatin (MCE, #HY-13441) in T25 flasks on a belly dancer and culturing the cells overnight. On Day 0, ventral midbrain floor plate differentiation (Stage 2) was initiated by changing the medium to a Stage 2-1 differentiation medium containing DMEM: F12/B27 (plus Vitamin A) (98:2, v/v) as basal medium and supplemented with 0.5 μM LDN193189, 10 μM SB431542, 500 ng/mL SHH C24II, 2 μM Purmorphamine, 10 nM SAG and 1.2 μM CHIR99021 and culturing the cells for 3 Days. […] The cells of each group were stained with OTX2-FITC antibody (Miltenyi, #130-121-195), the percentage of OTX2+ imDAP cells were analyzed by flow cytometry (FIG. 8A). The cells obtained by Boost-CHIR treatment from D4 to D6, D7 or D8, or from D5 to D7 or D8 were analyzed by qRT-PCR for dorsal midbrain marker PAX6 (FIG. 8B).

In the case of `Cc1cnc(-c2cnc(NCCNc3ccc(C#N)cn3)nc2-c2ccc(Cl)cc2Cl)[nH]1` [CHIR, CHIR99021], the “percentage of cells positive for OTX2” value (Boost-CHIR 7.5 μM from Day 4 to Day 6 (Stage 2-2)) is reported as 75.29%, the “percentage of cells positive for OTX2” value (Boost-CHIR 7.5 μM from Day 4 to Day 7 (Stage 2-2)) is reported as 71.92% and the “percentage of cells positive for OTX2” value (Boost-CHIR 7.5 μM from Day 4 to Day 8 (Stage 2-2)) is reported as 79.83%.
